Columns and labels:
[1] = Antiglycation activity assessed as inhibition of advanced glycation end product formation at 200 uM; type: physicochemical
[2] = Antiglycation activity assessed as inhibition of Schiff-base formation at 200 uM; type: physicochemical
[3] = Antiglycation activity assessed as inhibition of dicarbonyl compounds formation at 200 uM; type: physicochemical
[4] = Antioxidant activity assessed as ABTS free radical scavenging activity
[5] = target: T1, Albumin (Bos taurus, UniProt P02769); test: Antiglycation activity in bovine serum albumin assessed as inhibition of fructosamines formation in presence of glucose
[6] = Antiglycation activity assessed as inhibition of Schiff-base formation; type: physicochemical
[7] = target: T1, Albumin; test: Antiglycation activity in bovine serum albumin assessed as inhibition of fructosamines formation at 200 uM in presence of glucose; settings: cattle
[8] = Antiglycation activity assessed as inhibition of advanced glycation end product formation; type: physicochemical
[9] = Antiglycation activity assessed as inhibition of dicarbonyl compounds formation; type: physicochemical

T1 sequence (P02769 whole entry): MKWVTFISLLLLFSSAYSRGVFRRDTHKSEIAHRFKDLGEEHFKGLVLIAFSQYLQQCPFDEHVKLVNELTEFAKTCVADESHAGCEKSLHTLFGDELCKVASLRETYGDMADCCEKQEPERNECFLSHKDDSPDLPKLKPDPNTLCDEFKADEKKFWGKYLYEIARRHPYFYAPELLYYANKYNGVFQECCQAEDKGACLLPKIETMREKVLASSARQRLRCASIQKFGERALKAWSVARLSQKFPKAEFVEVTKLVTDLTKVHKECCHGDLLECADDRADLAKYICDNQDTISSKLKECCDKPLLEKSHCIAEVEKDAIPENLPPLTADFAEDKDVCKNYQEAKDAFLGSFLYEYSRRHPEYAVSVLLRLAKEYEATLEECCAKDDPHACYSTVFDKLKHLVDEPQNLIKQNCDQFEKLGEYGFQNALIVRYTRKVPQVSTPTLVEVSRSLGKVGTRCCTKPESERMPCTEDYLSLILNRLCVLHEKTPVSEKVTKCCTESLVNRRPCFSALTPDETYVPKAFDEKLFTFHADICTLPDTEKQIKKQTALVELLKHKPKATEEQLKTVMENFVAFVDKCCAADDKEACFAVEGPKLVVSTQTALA

SMILES	inhibition (INH) [1]	inhibition (INH) [2]	inhibition (INH) [3]	IC50 [4]	IC50 [5]	IC50 [6]	inhibition at 200 µM [7]	IC50 [8]	IC50 [9]	inhibition (INH) ([7]; 200 µM)
COc1c(O)cc2c(c1O)[C@@H]1O[C@H](CO)[C@@H](O)[C@H](O)[C@H]1OC2=O [BERGENIN]	75.69%	109.4%	102.66%	2 µM	164 µM	0.00054 µM	20.6%	187 µM		
COc1c(O)cc2c(c1O)[C@@H]1O[C@H](COC(=O)c3ccccc3)[C@@H](O)[C@H](O)[C@H]1OC2=O	Not Active			3.5 µM			49.2%			
COc1c(O)cc2c(c1O)[C@@H]1O[C@H](COC(=O)c3ccc([N+](=O)[O-])cc3)[C@@H](O)[C@H](O)[C@H]1OC2=O	Not Active			3.6 µM			21.4%			
COc1cc(C(=O)OC[C@H]2O[C@H]3c4c(cc(O)c(OC)c4O)C(=O)O[C@@H]3[C@@H](O)[C@@H]2O)cc(OC)c1OC	Not Active			3.2 µM			42.1%			
COc1ccc(C(=O)OC[C@H]2O[C@H]3c4c(cc(O)c(OC)c4O)C(=O)O[C@@H]3[C@@H](O)[C@@H]2O)c([N+](=O)[O-])c1	Not Active			4.4 µM			17.5%			
COc1c(O)cc2c(c1O)[C@@H]1O[C@H](COC(=O)c3cccc(O)c3O)[C@@H](O)[C@H](O)[C@H]1OC2=O	93.27%	97.86%	97.77%	1.7 µM	322 µM	76 µM	26.2%	60.8 µM	8.95 µM	
COc1cc(C(=O)OC[C@H]2O[C@H]3c4c(cc(O)c(OC)c4O)C(=O)O[C@@H]3[C@@H](O)[C@@H]2O)ccc1O	Not Active			4.2 µM			36.5%			
N=C(N)NN [PIMAGEDINE]	79.67%							88.9 µM		
COc1c(O)cc2c(c1O)[C@@H]1O[C@H](COC(=O)/C=C/c3ccccc3)[C@@H](O)[C@H](O)[C@H]1OC2=O	Not Active			3 µM						Not Active
COc1c(O)cc2c(c1O)[C@@H]1O[C@H](COC(=O)c3cc(O)c(O)c(O)c3)[C@@H](O)[C@H](O)[C@H]1OC2=O	83.62%	95.96%	102.22%	1.5 µM	184 µM	9.06 µM	22.2%	12.3 µM		

From ChEMBL document CHEMBL1806470, “Synthesis and antiglycation potentials of bergenin derivatives” (Bioorg Med Chem Lett, 2011)
